Source: PubChem BioAssay AID179 (DTP/NCI, 2004)
Activity calls are given as the source filed them.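 The calls were made as follows: active = compounds giving half or more protection of infected cells from virus-caused growth loss, again on retest; inactive = the rest.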

Test system: CEM cells HIV-1 protection, formazan growth assay
Test: NCI AIDS Antiviral Assay
Conditions: for IC50: measured here: growth of uninfected CEM cells
Summary of the method: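 Steps: treat uninfected and HIV-1-infected human CEM cells at five drug levels; quantify growth by soluble formazan; retest any compound reaching 50% protection; classify actives from the retest.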

Q: What does the source list for `N#CC1(C#N)[C@@H]2CCC=C(Sc3ccccc3)[C@@H]21`?
A: EC50: > 200 µM; IC50: 9.12 µM

Q: What does the source list for `O=S(Cc1cc2c(cc1-c1ccccc1)OCO2)c1ccccc1` (configuration not stated)?
A: EC50: > 269 µM; IC50: 9.55 µM

Q: With `CC(C)(C)C1COP(=S)(C(C)(C)C)OC1` (configuration not stated) as the compound, how does the EC50 read?
A: > 14.5 µM

Q: And the IC50?
A: > 14.5 µM

Q: Which EC50 does the source give for `CCOC(=O)c1c(N=P(c2ccccc2)(c2ccccc2)c2ccccc2)nnc(-c2ccccc2)c1-c1ccccc1` here?
A: > 100 µM

Q: What about the IC50 of the same compound?
A: > 100 µM

Q: Which results are given for `CC1=NN(C(=O)Cc2ccccc2)C(=O)/C1=C\C=C\c1ccccc1`?
A: EC50: > 57.5 µM; IC50: > 57.5 µM

Q: `COc1cc2c(cc1OC)C13CCN4CC5=CCOC6CC(=O)N2C1C6C5C4C3` (configuration not stated) (tested in a mixture with another compound) was tested. Which EC50 did it give?
A: > 209 µM

Q: What does the source list for `CC1Cc2cc(OCc3ccccc3)cc(OCc3ccccc3)c2[C@H](C)N1Cc1ccccc1` (some centres not stated)?
A: EC50: > 200 µM; IC50: 14.5 µM

Q: What does the source list for `O=C(NCCN1CCCCC1)c1ccc(I)cc1`?
A: EC50: > 200 µM; IC50: > 200 µM

Q: `O=C(NCCCCCCNC(=O)NS(=O)(=O)c1ccccc1)NS(=O)(=O)c1ccccc1` was tested. Which EC50 did it give?
A: > 200 µM

Q: And the IC50?
A: > 200 µM

Q: For `O=[N+]([O-])/C=C/c1c[nH]c2c1ccc1ccccc12`, which EC50 is on record?
A: > 200 µM

Q: What about the IC50 of the same compound?
A: 4.27 µM

Q: `O=C(CC(=O)Nc1ccccc1F)N/N=C/c1ccccc1` was tested. Which outcome did it give?
A: inactive

Q: Which results are given for `O=C1c2cscc2C(=O)c2c(OCc3ccccc3)ccc(OCc3ccccc3)c21`?
A: EC50: > 200 µM; IC50: 4.17 µM

Q: Which outcome does the source give for `COC(=O)c1c(N)n[nH]c1N` here?
A: inactive

Q: Which results are given for `O=C(CCc1cc(-c2ccco2)n(-c2ccc([N+](=O)[O-])cc2[N+](=O)[O-])n1)Nc1ccccc1`?
A: EC50: > 41.7 µM; IC50: > 41.7 µM

Q: How did the EC50 turn out when `CN(N)c1cnn(-c2ccccc2)c(=O)c1Cl` was run?
A: > 200 µM

Q: What about the IC50 of the same compound?
A: > 200 µM

Q: What does the source list for `NC(=O)CCC(F)(C(N)=O)C(N)=O`?
A: EC50: > 200 µM; IC50: > 200 µM

Q: For `CN(C)C1CS(=O)(=O)OC2=C1CCc1sccc12` (configuration not stated), which EC50 is on record?
A: > 25.1 µM

Q: And the IC50?
A: > 25.1 µM

Q: For `COC(=O)C[C@@H]1C(C)(C)[C@@H]2O[C@@]34C[C@@H]2C(=O)[C@]1(C)[C@H]3CC[C@@]1(C)[C@H](c2ccoc2)OC(=O)C[C@]14O`, which EC50 is on record?
A: > 200 µM

Q: And the IC50?
A: 120 µM

Q: How did the EC50 turn out when `C/C(=N\NC(=S)NCCCNC(=S)N/N=C(\C)c1ccccn1)c1ccccn1` was run?
A: > 200 µM

Q: And the IC50?
A: 3.16 µM

Q: `Cc1cc(=O)[nH]c(NNC(C#N)c2ccc(N(C)C)cc2)n1` (configuration not stated) was tested. Which EC50 did it give?
A: > 63.1 µM

Q: What about the IC50 of the same compound?
A: > 63.1 µM

Q: With `CC(O)(c1ccccc1)c1ccc2ccccc2n1` (configuration not stated) as the compound, how does the EC50 read?
A: > 200 µM

Q: What about the IC50 of the same compound?
A: 38 µM

Q: How did the EC50 turn out when `CC(=O)Oc1c(OC(C)C)c(C)c(O[Si](C(C)C)(C(C)C)C(C)C)c2[nH]c3ccccc3c12` was run?
A: > 100 µM

Q: What about the IC50 of the same compound?
A: 13.5 µM

Q: For `COCc1cc(=O)oc2c3c(c4c(c12)OC(C)(C)C=C4)O[C@H](C)[C@@H](C)[C@H]3O`, which EC50 is on record?
A: 174 µM

Q: And the IC50?
A: 182 µM

Q: With `CC(=O)[O-].CC(=O)[O-].O=C(N/N=C/c1cc(Cl)cc(Cl)c1[OH2+])c1ccncc1.[Co+2]` as the compound, how does the outcome read?
A: inactive

Q: Which EC50 does the source give for `O/N=C(/Cc1ccccc1)CC(O)(C(F)(F)F)C(F)(F)F` here?
A: > 200 µM

Q: And the IC50?
A: 70.8 µM

Q: With `CC12NC(=O)NC(=O)N1CCS2` (configuration not stated) as the compound, how does the outcome read?
A: inactive

Q: Which results are given for `CSC(=NC(=O)c1ccccc1Cl)SCCSC(=NC(=O)c1ccccc1Cl)SC`?
A: EC50: > 347 µM; IC50: > 347 µM

Q: Which results are given for `CCOC(=O)C(=O)Nc1ccccc1C`?
A: EC50: > 34.7 µM; IC50: > 34.7 µM

Q: Which EC50 does the source give for `C[Si](C)(C)[C@@]1([Se]c2ccccc2)CC[C@@H]1C(=O)c1ccccc1` here?
A: > 13.5 µM

Q: And the IC50?
A: > 13.5 µM

Q: `Cc1[nH]n(-c2nc3c(c(=O)[nH]2)CCCC3)c(=O)c1CCO` was tested. Which EC50 did it give?
A: > 200 µM

Q: And the IC50?
A: 129 µM

Q: Which outcome does the source give for `C[C@H]1CCC2C(OC(=O)[C@@H]2CN(C)C)[C@]2(C)C(=O)C=CC12O` (some centres not stated) here?
A: inactive

Q: Which results are given for `CC(=O)Nc1c(C#N)c2n(c1C(=O)Nc1ccc(S(N)(=O)=O)cc1)CCC2`?
A: EC50: > 200 µM; IC50: > 200 µM

Q: With `Cc1ccc2nc(-c3ccc(N=Nc4cc(S(=O)(=O)O)c5ccccc5c4O)cc3)sc2c1S(=O)(=O)O` as the compound, how does the EC50 read?
A: > 50.1 µM

Q: And the IC50?
A: > 50.1 µM

Q: What does the source list for `CC(C)(CN1CCCCC1)C(=O)CC(SCCS(=O)(=O)O)c1ccc(Br)cc1` (configuration not stated)?
A: EC50: > 427 µM; IC50: 1.74 µM
